Measurements from patent US9179674B2, “Macrocyclic picolinamide compounds with fungicidal activity” (DOW AGROSCIENCES LLC, priority 2013, dated 2015).
Read-outs that look alike come from different tables or passages of the source.

What was measured:
[1] = system: Mycosphaerella graminicola; Anamorph: Septoria tritici; assay: Leaf Blotch of Wheat fungicidal activity (SEPTTR); type: in vivo; conditions: Zymoseptoria tritici; for pest or weed control at 100 ppm: rate 100 ppm; for pest or weed control at 121.5 g/ha: rate 121.5 g/H
Method: Evaluation of Fungicidal Activity: Leaf Blotch of Wheat (Mycosphaerella graminicola; Anamorph: Septoria tritici; Bayer code […]) Technical grades of materials were dissolved in acetone, which were then mixed with nine volumes of water containing 110 ppm Triton X-100. The fungicide solutions were applied onto wheat seedlings using an automated booth sprayer to run-off. All sprayed plants were allowed to air dry prior to further handling. All fungicides were evaluated using the aforementioned method for their activity vs. all target diseases. Wheat leaf blotch and brown rust activity were also evaluated using track spray applications, in which case the fungicides were formulated as EC formulations, containing 0.1% Trycol 5941 in the spray solutions. Wheat plants (variety Yuma) were grown from seed in a greenhouse in 50% mineral soil/50% soil-less Metro mix until the first leaf was fully emerged, with 7-10 seedlings per pot. These plants were inoculated with an aqueous spore suspension of Septoria tritici either prior to or after fungicide treatments. After inoculation the plants were kept in 100% relative humidity (one day in a dark dew chamber followed by two to three days in a lighted dew chamber at 20° C.) to permit spores to germinate and infect the leaf. The plants were then transferred to a greenhouse set at 20° C. for disease to develop. When disease symptoms were fully expressed on the 1st leaves of untreated plants, infection levels were assessed on a scale of 0 to 100 percent disease severity. Percent disease control was calculated using the ratio of disease severity on treated plants relative to untreated plants.

Puccinia triticina = assay: Wheat Brown Rust fungicidal activity (PUCCRT); type: in vivo; conditions: Puccinia triticina; for pest or weed control at 100 ppm: rate 100 ppm; for pest or weed control at 121.5 g/ha: rate 121.5 g/H
Method: Technical grades of materials were dissolved in acetone, which were then mixed with nine volumes of water containing 110 ppm Triton X-100. The fungicide solutions were applied onto wheat seedlings using an automated booth sprayer to run-off. All sprayed plants were allowed to air dry prior to further handling. All fungicides were evaluated using the aforementioned method for their activity vs. all target diseases. Wheat leaf blotch and brown rust activity were also evaluated using track spray applications, in which case the fungicides were formulated as EC formulations, containing 0.1% Trycol 5941 in the spray solutions. Wheat plants (variety Yuma) were grown from seed in a greenhouse in 50% mineral soil/50% soil-less Metro mix until the first leaf was fully emerged, with 7-10 seedlings per pot. These plants were inoculated with an aqueous spore suspension of Septoria tritici either prior to or after fungicide treatments. After inoculation the plants were kept in 100% relative humidity (one day in a dark dew chamber followed by two to three days in a lighted dew chamber at 20° C.) to permit spores to germinate and infect the leaf. The plants were then transferred to a greenhouse set at 20° C. for disease to develop. When disease symptoms were fully expressed on the 1st leaves of untreated plants, infection levels were assessed on a scale of 0 to 100 percent disease severity. Percent disease control was calculated using the ratio of disease severity on treated plants relative to untreated plants. Evaluation of Fungicidal Activity: Wheat Brown Rust (Puccinia triticina; Synonym: Puccinia recondite f sp. tritici; Bayer code PUCCRT) Wheat plants (variety Yuma) were grown from seed in a greenhouse in 50% mineral soil/50% soil-less Metro mix until the first leaf was fully emerged, with 7-10 seedlings per pot. These plants were inoculated with an aqueous spore suspension of Puccinia triticina either prior to or after fungicide treatments. After inoculation the plants were kept in a dark dew room at 22° C. with 100% relative humidity overnight to permit spores to germinate and infect the leaf. The plants were then transferred to a greenhouse set at 24° C. for disease to develop. Fungicide formulation, application and disease assessment followed the procedures as described in the Example A.

[2] = 24 h, 1 Day Protectant, read-out: Disease control SEPTTR 1DP
[3] = 72 h, 3 Day Curative, read-out: Disease control SEPTTR 3DC
[4] = 24 h, 1 Day Protectant, read-out: Disease control PUCCRT 1DP
[5] = 72 h, 3 Day Curative, read-out: Disease control PUCCRT 3DC

Compound	pest or weed control at 100 ppm [1, 2]	pest or weed control at 121.5 g/ha [1, 2]	pest or weed control at 100 ppm [1, 3]	pest or weed control at 121.5 g/ha [1, 3]	pest or weed control at 100 ppm (Puccinia triticina; [4])	pest or weed control at 121.5 g/ha (Puccinia triticina; [4])	pest or weed control at 100 ppm (Puccinia triticina; [5])	pest or weed control at 121.5 g/ha (Puccinia triticina; [5])
COc1ccnc(C(=O)N[C@H]2COC[C@H](Cc3ccc(C(F)(F)F)cc3)[C@@H](OC3CCCC3)[C@H](C)OC2=O)c1OC(C)=O [Compound F66]	80 to 100%	80 to 100%	0 to 80%	0 to 80%	80 to 100%	80 to 100%	0 to 80%	0 to 80%
COc1ccnc(C(=O)N[C@H]2COC[C@H](Cc3ccc(C(F)(F)F)cc3)[C@@H](OC(=O)C(C)C)[C@H](C)OC2=O)c1OC(C)=O [Compound F67]	80 to 100%	–	0 to 80%	–	80 to 100%	–	80 to 100%	–
COc1ccnc(C(=O)N[C@H]2COC[C@H](CCC(C)C)[C@@H](OCC(C)C)[C@H](C)OC2=O)c1OC(C)=O [Compound F68]	80 to 100%	80 to 100%	80 to 100%	80 to 100%	80 to 100%	80 to 100%	80 to 100%	80 to 100%
COc1ccnc(C(=O)N[C@H]2COC[C@H](CCC(C)C)[C@@H](Oc3ccc(C)cc3)[C@H](C)OC2=O)c1OC(C)=O [Compound F69]	80 to 100%	80 to 100%	80 to 100%	80 to 100%	80 to 100%	80 to 100%	80 to 100%	0 to 80%
CCCO[C@@H]1[C@@H](CCC(C)C)COC[C@H](NC(=O)c2nccc(OC)c2OC(C)=O)C(=O)O[C@H]1C [Compound F70]	80 to 100%	–	80 to 100%	–	80 to 100%	–	80 to 100%	–
COc1ccnc(C(=O)N[C@H]2COC[C@H](CCC(C)C)[C@@H](OC3CCCC3)[C@H](C)OC2=O)c1OC(C)=O [Compound F71]	80 to 100%	–	80 to 100%	–	80 to 100%	–	80 to 100%	–
COc1ccnc(C(=O)N[C@H]2COC[C@H](Cc3cc(F)c(F)c(F)c3)[C@@H](OCC(C)C)[C@H](C)OC2=O)c1OC(C)=O [Compound F72]	80 to 100%	80 to 100%	80 to 100%	80 to 100%	80 to 100%	80 to 100%	80 to 100%	80 to 100%
COc1ccnc(C(=O)N[C@H]2COC[C@H](Cc3cccc4ccccc34)[C@@H](OC3CCCC3)[C@H](C)OC2=O)c1OCOC(C)=O [Compound F86]	80 to 100%	–	80 to 100%	–	80 to 100%	–	80 to 100%	–
COc1ccnc(C(=O)N[C@H]2COC[C@H](Cc3cccc4ccccc34)[C@@H](OCC(C)C)[C@H](C)OC2=O)c1OCOC(C)=O [Compound F87]	80 to 100%	80 to 100%	80 to 100%	80 to 100%	80 to 100%	80 to 100%	80 to 100%	0 to 80%
COc1ccnc(C(=O)N[C@H]2COC[C@H](CCc3ccccc3)[C@@H](OC(=O)C3CC3)[C@H](C)OC2=O)c1OCOC(C)=O [Compound F92]	80 to 100%	80 to 100%	80 to 100%	80 to 100%	80 to 100%	80 to 100%	80 to 100%	80 to 100%
COc1ccnc(C(=O)N[C@H]2COC[C@H](Cc3ccc(F)cc3)[C@@H](OCCCC(F)(F)F)[C@H](C)OC2=O)c1OCOC(C)=O [Compound F93]	80 to 100%	80 to 100%	80 to 100%	80 to 100%	80 to 100%	80 to 100%	80 to 100%	80 to 100%
COc1ccnc(C(=O)N[C@H]2COC[C@H](Cc3ccc(F)cc3)[C@@H](OC3CCCC3)[C@H](C)OC2=O)c1OCOC(C)=O [Compound F94]	80 to 100%	80 to 100%	80 to 100%	80 to 100%	80 to 100%	80 to 100%	80 to 100%	80 to 100%
CCCCCO[C@@H]1[C@@H](Cc2ccc(F)cc2)COC[C@H](NC(=O)c2nccc(OC)c2OCOC(C)=O)C(=O)O[C@H]1C [Compound F95]	80 to 100%	–	80 to 100%	–	80 to 100%	–	80 to 100%	–
COc1ccnc(C(=O)N[C@H]2COC[C@H](Cc3ccc(C)cc3)[C@@H](OC(=O)C3CC3)[C@H](C)OC2=O)c1OCOC(C)=O [Compound F97]	80 to 100%	80 to 100%	0 to 80%	80 to 100%	80 to 100%	80 to 100%	80 to 100%	80 to 100%
COc1ccnc(C(=O)N[C@H]2COC[C@H](Cc3ccc(C(F)(F)F)cc3)[C@@H](OC(=O)C3CC3)[C@H](C)OC2=O)c1OCOC(C)=O [Compound F98]	80 to 100%	80 to 100%	80 to 100%	0 to 80%	80 to 100%	80 to 100%	80 to 100%	0 to 80%
COc1ccnc(C(=O)N[C@H]2COC[C@H](Cc3ccc(C(F)(F)F)cc3)[C@@H](OCC(C)C)[C@H](C)OC2=O)c1OCOC(C)=O [Compound F99]	80 to 100%	80 to 100%	80 to 100%	80 to 100%	80 to 100%	80 to 100%	80 to 100%	0 to 80%
COc1ccnc(C(=O)N[C@H]2COC[C@H](Cc3ccc(C(F)(F)F)cc3)[C@@H](OC3CCCC3)[C@H](C)OC2=O)c1OCOC(C)=O [Compound F100]	80 to 100%	80 to 100%	80 to 100%	0 to 80%	80 to 100%	80 to 100%	80 to 100%	0 to 80%
CCCO[C@@H]1[C@@H](Cc2ccc(C(F)(F)F)cc2)COC[C@H](NC(=O)c2nccc(OC)c2OCOC(C)=O)C(=O)O[C@H]1C [Compound F101]	80 to 100%	–	80 to 100%	–	80 to 100%	–	80 to 100%	–
COc1ccnc(C(=O)N[C@H]2COC[C@H](Cc3ccc(C(F)(F)F)cc3)[C@@H](OC(=O)C(C)C)[C@H](C)OC2=O)c1OCOC(C)=O [Compound F102]	80 to 100%	–	80 to 100%	–	80 to 100%	–	80 to 100%	–
